Data from US20220117938A1, “COMBINATON THERAPY WITH A DON PRODRUG AND AN IMMUNE CHECKPOINT INHIBITOR” (DRACEN PHARMACEUTICALS, INC., priority 2019, published 2022).

Tested on: Ninety four (94) cell lines and PBMC
Test: Cell viability assay, SRB staining, 94 cell lines and PBMC (Example 7, Experiment 2)
Format: cell-based
Procedure: Ninety four (94) cell lines were seeded at a density varying from 500 to 7000 cells/well depending on their growth characteristics. PBMC were seeded at the density 50,000-100,000 cells/well. Cells were incubated for 48 h prior to compound treatment. Compound 1 and DON were evaluated at a concertation range of 1 nM up to 100 μM. Compound 1 dilutions in DMSO and DON dilutions in PBS were performed in 96-well 0.5 mL plates (Greiner Bio-One, Germany). Compounds were then diluted 1:100 in RPMI medium. […] of cells were treated by mixing with 10 μL of the compound-containing media (resulting in a final DMSO concentration of 0.1%). The cells were allowed to grow at 37° C. for 120 h. Cells were fixed to the surface by addition of 10% TCA (for adherent growing cells) or 50% TCA (for semi-adherent growing cells or cells growing in suspension). After an hour of incubation at 4° C., plates were washed twice with 400 μL of deionized water and dried. Cells were then stained with 100 μL of 0.04% wt/v SRB. The plates were incubated at room temperature for at least 30 min and washed six times with 1% acetic acid to remove unbound stain. The plates were left to dry at room temperature and bound SRB was solubilized with 100 μL of 10 mM Tris base. Optical density was measured at 492, 520 and 560 nm using a Deelux-LED96 plate reader (Deelux Labortechnik GmbH, Germany).
Cell lines were purchased directly from the ATCC, NCI, CLS, and DSMZ cell line collections. A master bank and working aliquots were prepared. Cells used for the study had undergone less than 20 passages. To rule out potential contamination or wrong assignment, all cell lines were tested by STR analysis. Absence of mycoplasma contamination was confirmed for all cell lines used in the studies.
The cell lines were grown in the media recommended by the suppliers in the presence of 100 U/mL penicillin and 100 μg/mL streptomycin supplied with 10% FCS (PAA, Germany). RPMI 1640, DMEM, and MEM Earle's medium were from PAA (Coelbe, Germany), supplements 2 mM L-glutamine, 1 mM Na-pyruvate and 1% NEAA were from PAA (Coelbe, Germany), 2.5% horse serum, hydrocortisone, transferin, beta-estradiol, selenite and 1 U/mL insulin from Sigma-Aldrich (Munich, Germany). RPMI medium was used for culturing the following cell lines: 5637, 22RV1, 7860, A2780, A431, A549, ACHN, ASPC1, BT20, BXPC3, CAKI1, CLS439, COLO205, COLO678, DLD1, DU145, EFO21, EJ28, HCT15, HS578T, IGROV1, JAR, LOVO, MCF7, MDA MB231, MDA MB435, MDA MB436, MDA MB468, MHHES1, MT3, NCI H292, NCI H358M, NCI H460, NCIH82, OVCAR3, OVCAR4, PANC 1005 (addition of insulin), PBMC, PC3, RDES, SF268, SF295, SKBR3, SK MEL28, SKMEL5, SKOV3, SW620, U2OS, UMUC3, and U031.
DMEM medium was used to culture A204, A375, A673, C33A, CASKI, HCT116, HEPG2, HS729, HT29, J82, MG63, MIAPACA2 (addition of horse serum), PANC1, PLCPRF5, RD, SAOS2, SKLMS1, SKNAS, SNB75, T24, and TE671.
MEM Earle's medium was used for CACO2, CALU6, HEK293, HELA, HT1080, IMR90, JEG3, JIMT1, SKHEP1, SKNSH, and U87MG. Cell seeding conditions were optimized for each cell line. The cell seeding density varied from 500 to 7000 cells/well depending on their growth characteristics. Peripheral blood mononuclear cells (PBMC) were freshly isolated from whole blood of an anonymous donor through density gradient centrifugation using Ficoll solution (d=1.077). In short, blood was diluted 1:1 with PBS and carefully placed on the Ficoll. After centrifugation 1000×g for 15 min (braking rate 0), the ring containing mainly leucocytes was collected in PBS followed by three times washing with PBS to reduce the platelets. PBMC were seeded at the density 50,000-100,000 cells/well. Cells were grown in 5% CO2 atmosphere in a NB-203XXL incubator (N-BIOTEK Inc., Korea).
Ninety-four cell lines were tested in parallel. Cell growth and treatment were performed in 96 well microtitre plates CELLSTAR® (Greiner Bio-One, Germany). […]

[1] = Homo sapiens, 22Rv1, 22RV1, prostate
[2] = Homo sapiens, 786-0, 786O, kidney
[3] = Homo sapiens, A204, A204, muscle
[4] = Homo sapiens, A673, A673, muscle
[5] = Homo sapiens, A2780, A2780, ovary
[6] = Homo sapiens, A-375, A375, skin
[7] = Homo sapiens, A-431, A431, skin
[8] = Homo sapiens, ASPC1, ASPC1, pancreas
[9] = Homo sapiens, BT-20, BT20, breast
[10] = Homo sapiens, C-33-A, C33A, endometrial
[11] = Homo sapiens, CAKI-1, CAKI1, kidney
[12] = Homo sapiens, COLO 205, COLO205, colon
[13] = Homo sapiens, Ca-Ski, CASKI, endometrial
[14] = Homo sapiens, Caco-2, CACO2, colon
[15] = Homo sapiens, Calu-6, CALU6, lung
[16] = Homo sapiens, DLD-1, DLD1, colon
[17] = Homo sapiens, DU-145, DU145, prostate
[18] = Homo sapiens, EFO-21, EFO21, ovary
[19] = Homo sapiens, EJ-28, EJ28, bladder
[20] = Homo sapiens, Granta-519, GRANTA-519, hematological
[21] = Homo sapiens, HCT-15, HCT15, colon
[22] = Homo sapiens, HCT-116, HCT116, colon
[23] = Homo sapiens, HEK293, HEK293, kidney
[24] = Homo sapiens, HL-60, HL-60, hematological
[25] = Homo sapiens, HT-29, HT29, colon
[26] = Homo sapiens, HT-1080, HT1080, connective tissue
[27] = Homo sapiens, HeLa, endometrial
[28] = Homo sapiens, HepG2, HEPG2, liver
[29] = Homo sapiens, IGROV-1, IGROV1, ovary
[30] = Homo sapiens, JEG-3, JEG3, placenta
[31] = Homo sapiens, JIMT-1, JIMT1, breast
[32] = Homo sapiens, K562, K-562, hematological
[33] = Homo sapiens, Kasumi 1, KASUMI-1, hematological
[34] = Homo sapiens, L-363, L-363, hematological
[35] = Homo sapiens, MCF7, MCF7, breast
[36] = Homo sapiens, MDA-MB-231, MDAMB231, breast
[37] = Homo sapiens, MDA-MB-435, MDAMB435, skin
[38] = Homo sapiens, MDA-MB-436, MDAMB436, breast

**Q.** Which IC50 (5637, bladder) does the source give for `CC(=O)N[C@@H](Cc1c[nH]c2ccccc12)C(=O)N[C@@H](CCC(=O)C=[N+]=[N-])C(=O)OC(C)C` [Compound 1, Isopropyl (S)-2-((S)-2-acetamido-3-(1H-indol-3-yl)propanamido)-6-diazo-5-oxohexanoate] here?
**A.** 2.43 µM

**Q.** What about the IC50 (CLS439, bladder) of the same compound?
**A.** 8.43 µM

**Q.** And the GI50 [1]?
**A.** 1.02 µM

**Q.** And the IC50 [1]?
**A.** 1.1 µM

**Q.** What about the GI50 [2] of the same compound?
**A.** 3.34 µM

**Q.** And the IC50 [2]?
**A.** 3.84 µM

**Q.** What about the GI50 [3] of the same compound?
**A.** 2.65 µM

**Q.** What about the IC50 [3] of the same compound?
**A.** 20.3 µM

**Q.** And the GI50 (Homo sapiens, A549, A549, lung)?
**A.** 9.04 µM

**Q.** And the IC50 (Homo sapiens, A549, A549, lung)?
**A.** 9.28 µM

**Q.** What about the GI50 [4] of the same compound?
**A.** 3.49 µM

**Q.** And the IC50 [4]?
**A.** 3.87 µM

**Q.** What about the GI50 [5] of the same compound?
**A.** 3.04 µM

**Q.** What about the IC50 [5] of the same compound?
**A.** 3.28 µM

**Q.** What about the GI50 [6] of the same compound?
**A.** 4.13 µM

**Q.** And the IC50 [6]?
**A.** 4.39 µM

**Q.** What about the GI50 [7] of the same compound?
**A.** 14.2 µM

**Q.** And the IC50 [7]?
**A.** 18.4 µM

**Q.** And the GI50 (Homo sapiens, ACHN, kidney)?
**A.** 7.88 µM

**Q.** And the IC50 (Homo sapiens, ACHN, kidney)?
**A.** 8.98 µM

**Q.** And the GI50 [8]?
**A.** 5.96 µM

**Q.** What about the IC50 [8] of the same compound?
**A.** 8.36 µM

**Q.** And the GI50 [9]?
**A.** 20 µM

**Q.** What about the IC50 [9] of the same compound?
**A.** 53.1 µM

**Q.** What about the GI50 (Homo sapiens, BXPC-3, BXPC3, pancreas) of the same compound?
**A.** 4.24 µM

**Q.** And the GI50 [10]?
**A.** 7.46 µM

**Q.** What about the IC50 [10] of the same compound?
**A.** 7.69 µM

**Q.** And the GI50 [11]?
**A.** 5.3 µM

**Q.** And the IC50 [11]?
**A.** 6.84 µM

**Q.** And the GI50 [12]?
**A.** 2.73 µM

**Q.** And the IC50 [12]?
**A.** 4.66 µM

**Q.** What about the GI50 (Homo sapiens, COLO-678, COLO678, colon) of the same compound?
**A.** 93 µM

**Q.** What about the GI50 [13] of the same compound?
**A.** 5.9 µM

**Q.** What about the IC50 [13] of the same compound?
**A.** 7.83 µM

**Q.** And the GI50 [14]?
**A.** 19.4 µM

**Q.** And the IC50 [14]?
**A.** 28.2 µM

**Q.** And the GI50 [15]?
**A.** 5.88 µM

**Q.** And the IC50 [15]?
**A.** 7.07 µM

**Q.** What about the GI50 [16] of the same compound?
**A.** 9.25 µM

**Q.** What about the IC50 [16] of the same compound?
**A.** 9.59 µM

**Q.** And the GI50 [17]?
**A.** 8.82 µM

**Q.** What about the IC50 [17] of the same compound?
**A.** 10.9 µM

**Q.** What about the GI50 [18] of the same compound?
**A.** 6.86 µM

**Q.** And the IC50 [18]?
**A.** 14.1 µM

**Q.** And the GI50 [19]?
**A.** 5.82 µM

**Q.** And the IC50 [19]?
**A.** 6.55 µM

**Q.** And the GI50 [20]?
**A.** 0.687 µM

**Q.** What about the IC50 [20] of the same compound?
**A.** 0.768 µM

**Q.** What about the GI50 [21] of the same compound?
**A.** 20.1 µM

**Q.** What about the IC50 [21] of the same compound?
**A.** 21.7 µM

**Q.** What about the GI50 [22] of the same compound?
**A.** 1.31 µM

**Q.** What about the IC50 [22] of the same compound?
**A.** 1.33 µM

**Q.** And the GI50 [23]?
**A.** 9.21 µM

**Q.** And the IC50 [23]?
**A.** 10.4 µM

**Q.** And the GI50 [24]?
**A.** 1.09 µM

**Q.** What about the IC50 [24] of the same compound?
**A.** 1.1 µM

**Q.** And the GI50 [25]?
**A.** 0.88 µM

**Q.** And the IC50 [25]?
**A.** 1.07 µM

**Q.** And the GI50 [26]?
**A.** 2.61 µM

**Q.** And the IC50 [26]?
**A.** 3.04 µM

**Q.** What about the GI50 [27] of the same compound?
**A.** 11.8 µM

**Q.** What about the IC50 [27] of the same compound?
**A.** 13.4 µM

**Q.** And the GI50 [28]?
**A.** 7.87 µM

**Q.** And the IC50 [28]?
**A.** 9.85 µM

**Q.** And the GI50 (Homo sapiens, Hs-578T, HS578T, breast)?
**A.** 36.4 µM

**Q.** What about the GI50 [29] of the same compound?
**A.** 8.98 µM

**Q.** What about the IC50 [29] of the same compound?
**A.** 10.7 µM

**Q.** And the GI50 (Homo sapiens, IMR-90, IMR90, lung)?
**A.** 14.6 µM

**Q.** What about the GI50 [30] of the same compound?
**A.** 3.87 µM

**Q.** What about the IC50 [30] of the same compound?
**A.** 4.78 µM

**Q.** What about the GI50 [31] of the same compound?
**A.** 19.4 µM

**Q.** And the IC50 [31]?
**A.** 40.6 µM

**Q.** And the GI50 [32]?
**A.** 1.15 µM

**Q.** And the IC50 [32]?
**A.** 1.2 µM

**Q.** And the GI50 [33]?
**A.** 3.17 µM

**Q.** What about the IC50 [33] of the same compound?
**A.** 7.95 µM

**Q.** And the GI50 [34]?
**A.** 0.546 µM

**Q.** And the IC50 [34]?
**A.** 0.717 µM

**Q.** What about the GI50 (Homo sapiens, LoVo, colon) of the same compound?
**A.** 5.16 µM

**Q.** And the IC50 (Homo sapiens, LoVo, colon)?
**A.** 5.55 µM

**Q.** And the GI50 [35]?
**A.** 4.13 µM

**Q.** And the IC50 [35]?
**A.** 8.59 µM

**Q.** And the GI50 [36]?
**A.** 11.6 µM

**Q.** What about the IC50 [36] of the same compound?
**A.** 14.6 µM

**Q.** And the GI50 [37]?
**A.** 14.7 µM

**Q.** What about the IC50 [37] of the same compound?
**A.** 15.2 µM

**Q.** What about the GI50 [38] of the same compound?
**A.** 49.3 µM

**Q.** What about the IC50 [38] of the same compound?
**A.** 131 µM
